Assay results as given in ChEMBL document CHEMBL1201862, “PubChem BioAssay data set” (2004).
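Protocol summary: plate cells (96-well), add compound at 5 concentrations, incubate 48 h, interpolate endpoints linearly. GI50: concentration for 50% inhibition of growth.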 Active and inactive are the calls of the source. Rule as the data show it: active = GI50 up to about 1.1 µM and inactive = higher.

Assays:
Test in all cases: NCI anticancer screen, dose series, 48 h
[1] = system: EKVX
[2] = system: HCT-116
[3] = system: CAKI-1
[4] = system: A549
[5] = system: TK-10
[6] = system: SF-295
[7] = system: Malme-3M
[8] = system: A498
[9] = system: K562
[10] = system: KM12
[11] = system: Hs-578T
[12] = system: UACC-62
[13] = system: U-251
[14] = system: BT-549
[15] = system: MOLT-4
[16] = system: OVCAR-4
[17] = system: OVCAR-5
[18] = system: COLO 205
[19] = system: T47D

Structure (SMILES)	GI50 [1]	GI50 [2]	GI50 [3]	GI50 [4]	GI50 [5]	GI50 [6]	GI50 [7]	GI50 [8]	GI50 [9]	GI50 [10]	GI50 [11]	GI50 [12]	GI50 [13]	GI50 [14]	GI50 [15]	GI50 [16]	GI50 [17]	GI50 [18]	GI50 [19]
Cc1cn2c(/C=N/NC(=N)N)c(-c3cccc([N+](=O)[O-])c3)nc2s1	2.38 µM (inactive)	0.366 µM (active)	2.42 µM (inactive)	1.95 µM (inactive)	2.21 µM (inactive)	1.81 µM (inactive)	1.96 µM (inactive)	1.48 µM (inactive)	0.215 µM (active)	0.647 µM (active)	2.38 µM (inactive)	1.69 µM (inactive)	1.6 µM (inactive)	1.75 µM (inactive)	1.77 µM (inactive)	0.153 µM (active)	2.07 µM (inactive)		
OCc1ccc(C2CC(c3ccco3)=NN2c2ccccc2)o1 (stereo unspecified)	> 100 µM (inactive)	> 100 µM (inactive)		> 100 µM (inactive)	> 100 µM (inactive)	> 100 µM (inactive)	> 100 µM (inactive)		86.3 µM (inactive)	> 100 µM (inactive)		> 100 µM (inactive)	> 100 µM (inactive)		> 100 µM (inactive)	> 100 µM (inactive)	> 100 µM (inactive)	> 100 µM (inactive)	
Cc1csc(=S)n1OC(=O)NC1CCCCC1	> 100 µM (inactive)	> 58.2 µM (inactive)	> 100 µM (inactive)	> 73.3 µM (inactive)	> 100 µM (inactive)	> 100 µM (inactive)	> 100 µM (inactive)	> 92.5 µM (inactive)	31 µM (inactive)	> 80.9 µM (inactive)		> 38.1 µM (inactive)	63.8 µM (inactive)		9.77 µM (inactive)				
Nc1c2ccccc2nc2c1ccc1ncccc12	27.1 µM (inactive)	5.22 µM (inactive)	25.7 µM (inactive)	21.9 µM (inactive)	34.1 µM (inactive)	21.8 µM (inactive)	12.4 µM (inactive)		12.5 µM (inactive)	15.1 µM (inactive)		14.5 µM (inactive)	39.1 µM (inactive)	48.3 µM (inactive)	5.15 µM (inactive)	17.9 µM (inactive)	21.5 µM (inactive)	20.3 µM (inactive)	27.5 µM (inactive)
Cc1cccc(NC(=O)C(=O)C(C(=O)c2ccc3ccccc3c2)C2OC(=O)c3ccccc32)c1C (stereo unspecified)	26.1 µM (inactive)	9.68 µM (inactive)	11.9 µM (inactive)	19.1 µM (inactive)	23.3 µM (inactive)		6.05 µM (inactive)	10.1 µM (inactive)	15.7 µM (inactive)	20.8 µM (inactive)		10.4 µM (inactive)	5.21 µM (inactive)		3.78 µM (inactive)	10.9 µM (inactive)	21.7 µM (inactive)	11.5 µM (inactive)	
C[C@H](CC[C@@H](O)C(C)(C)O)[C@H]1CC[C@@]2(C)[C@@H]3CC=C4[C@@H](CC[C@H](O)C4(C)C)[C@]3(C)C(=O)C[C@]12C [BRYODULCOSIGENIN]	21.2 µM (inactive)	22 µM (inactive)		27.7 µM (inactive)	> 50 µM (inactive)	> 50 µM (inactive)	> 50 µM (inactive)	> 50 µM (inactive)	19.6 µM (inactive)	15.1 µM (inactive)	45.7 µM (inactive)		38.5 µM (inactive)	23.6 µM (inactive)	19.5 µM (inactive)	> 50 µM (inactive)	16.8 µM (inactive)	11.1 µM (inactive)	
CCCCCCCCCCCCCCCCC(C(=O)O)C(O)(CC(=O)O)C(=O)O (stereo unspecified)	20.2 µM (inactive)	19.1 µM (inactive)	21.4 µM (inactive)		34.8 µM (inactive)	17.7 µM (inactive)	58.6 µM (inactive)	21 µM (inactive)	35.2 µM (inactive)	21.2 µM (inactive)	24.1 µM (inactive)	18.2 µM (inactive)	16.7 µM (inactive)	20.3 µM (inactive)	25.5 µM (inactive)		17.9 µM (inactive)	18.7 µM (inactive)	
CO/C(=N\N=C\c1ccc(OC)cc1OC)c1ccncc1		> 10 µM (inactive)		> 10 µM (inactive)	> 10 µM (inactive)	> 10 µM (inactive)	> 10 µM (inactive)	> 10 µM (inactive)	> 10 µM (inactive)	> 10 µM (inactive)			> 10 µM (inactive)		> 10 µM (inactive)		> 10 µM (inactive)	> 10 µM (inactive)	> 10 µM (inactive)
Cc1cc2nc3[nH]nc(N)c3nc2cc1C	31.4 µM (inactive)	> 100 µM (inactive)	> 100 µM (inactive)	> 100 µM (inactive)	> 100 µM (inactive)	> 100 µM (inactive)	> 100 µM (inactive)	> 100 µM (inactive)	> 100 µM (inactive)	> 100 µM (inactive)	52.7 µM (inactive)	> 100 µM (inactive)	> 100 µM (inactive)	> 100 µM (inactive)	> 100 µM (inactive)	> 100 µM (inactive)	> 100 µM (inactive)	44.4 µM (inactive)	
Clc1ccc(/C=c2\nc(-c3ccccc3)n3c2nc2ccccc23)cc1	19.7 µM (inactive)	> 100 µM (inactive)	51.4 µM (inactive)	> 100 µM (inactive)	> 100 µM (inactive)	25.5 µM (inactive)	> 100 µM (inactive)	> 100 µM (inactive)	> 100 µM (inactive)	> 100 µM (inactive)	49.3 µM (inactive)	> 100 µM (inactive)	49.1 µM (inactive)	63.2 µM (inactive)	> 100 µM (inactive)	56.4 µM (inactive)	> 100 µM (inactive)	> 100 µM (inactive)	
CC(C)(C)OC(=O)[C@@H]1ON2O[C@H](OC3CCCC3(c3ccccc3)c3ccccc3)C[C@H]3OC(=O)[C@@H]1[C@H]32 (stereo partly specified)	73.5 µM (inactive)	32 µM (inactive)	53.5 µM (inactive)	83.2 µM (inactive)	> 100 µM (inactive)	> 100 µM (inactive)			36.4 µM (inactive)	36.1 µM (inactive)		98.9 µM (inactive)	> 100 µM (inactive)	66.7 µM (inactive)	> 10 µM (inactive)	14.9 µM (inactive)	> 100 µM (inactive)	37.3 µM (inactive)	54 µM (inactive)
CCN(CC)CCn1nc(N)c2nc3ccccc3nc21	> 100 µM (inactive)	53.8 µM (inactive)	72.6 µM (inactive)	> 100 µM (inactive)	> 100 µM (inactive)	> 100 µM (inactive)	> 100 µM (inactive)	> 100 µM (inactive)	> 100 µM (inactive)	> 100 µM (inactive)	> 100 µM (inactive)	> 100 µM (inactive)	> 100 µM (inactive)	> 100 µM (inactive)	63.7 µM (inactive)	> 100 µM (inactive)	> 100 µM (inactive)		
CCOc1ccc(NC2=NC(=O)C(CC(=O)Nc3ccccc3[N+](=O)[O-])S2)cc1 (stereo unspecified)	> 100 µM (inactive)	> 100 µM (inactive)	> 100 µM (inactive)	> 100 µM (inactive)	> 100 µM (inactive)	> 100 µM (inactive)	> 100 µM (inactive)	> 100 µM (inactive)	> 100 µM (inactive)			94 µM (inactive)	> 100 µM (inactive)		> 100 µM (inactive)	> 100 µM (inactive)	> 100 µM (inactive)		
COC(=O)C1=C(C)N(NC(=O)c2cccc(Cl)c2)C(C)(O)C12CCOC2=O (stereo unspecified)	58.7 µM (inactive)	> 100 µM (inactive)	> 100 µM (inactive)	> 100 µM (inactive)		> 100 µM (inactive)	> 100 µM (inactive)	> 100 µM (inactive)	> 100 µM (inactive)	> 100 µM (inactive)		> 100 µM (inactive)	> 100 µM (inactive)		> 100 µM (inactive)	> 100 µM (inactive)	> 100 µM (inactive)		
COC1=CCC=C(C[C@@H]2NCCc3cc(OC)c(OC)cc32)C1	> 100 µM (inactive)	> 100 µM (inactive)	> 100 µM (inactive)	> 100 µM (inactive)	> 100 µM (inactive)	> 100 µM (inactive)	> 100 µM (inactive)	> 100 µM (inactive)	> 100 µM (inactive)	> 100 µM (inactive)		> 100 µM (inactive)	> 100 µM (inactive)		> 100 µM (inactive)	> 100 µM (inactive)	> 100 µM (inactive)	> 100 µM (inactive)	
O=C(O)C(=Cc1ccc(-c2ccc([N+](=O)[O-])cc2)o1)C(=O)O	> 100 µM (inactive)	> 100 µM (inactive)	> 100 µM (inactive)	> 100 µM (inactive)	> 100 µM (inactive)	> 100 µM (inactive)	> 100 µM (inactive)	> 100 µM (inactive)	> 100 µM (inactive)	> 100 µM (inactive)	> 100 µM (inactive)	> 100 µM (inactive)	> 100 µM (inactive)	> 100 µM (inactive)	> 100 µM (inactive)		> 100 µM (inactive)	> 100 µM (inactive)	
O=[N+]([O-])c1ccc(C2c3c(O)nc(O)nc3Oc3nc(O)nc(O)c32)cc1	> 100 µM (inactive)	> 100 µM (inactive)	> 100 µM (inactive)	> 100 µM (inactive)	> 100 µM (inactive)	> 100 µM (inactive)		> 100 µM (inactive)		> 100 µM (inactive)	> 100 µM (inactive)	95.3 µM (inactive)	> 100 µM (inactive)	> 100 µM (inactive)		> 100 µM (inactive)	> 100 µM (inactive)	> 100 µM (inactive)	
